Source: PMC6906431, “Selective small molecule PARG inhibitor causes replication fork stalling and cancer cell death” (Nature Communications, 2019)
Several values for one entry are separate records, joined by “and”; a condition that tells them apart may be missing. Equal values may be shown once.

How the values were obtained:
[1] = system: MDA-MB-231 PARG knockdown (PARG-KD) cells; experiment: Cellular PARylation, anti-PAR immunoblot; format: cell-based, human
Description: Fig. 6 Selective inhibition of PARG by xanthine derivative JA2131. a Clonogenic survival assays of PC3, MDA-MB-231, and MCF-7 cells treated with PARGi. Cells were treated with either DMSO or 10 µM JA2131 for 2 h, irradiated with 3 Gy (MDA-MB-231 and MCF-7), 7 Gy (PC3) IR and grown for ~2 weeks, then colonies were fixed with methanol and stained with crystal violet. The results of three independent experiments are shown. Error bars = the standard error of the mean (SEM). b dose-response of JA2131 in MDA-MB-231 cells with and without IR. Cells were treated with designated concentrations of JA2131 for 2 h and then either left untreated or exposed to 3 Gy IR and allowed to recover for 1 h before lysis. Total protein was immunoblotted with anti-PAR antibody (upper panel), stripped and reprobed with anti-PCNA as a loading control. c MDA-MB-231 cells with stable scrambled shRNA (WT) or stable PARG shRNA, knockdown (KD), were treated with 5 μM JA2131 for 2 h, lysed and then total lysates were immunoblotted for anti-PAR (upper panel) followed by anti-PARG (upper middle panel), anti-PARP1 (lower middle panel) and anti-actin (bottom panel) antibody. […] Stable cells with scramble shRNA (control) and shPARG (PARG-KD) cells were treated with an increasing concentration of JA2131 for growth inhibitory IC50 determination. The data was normalized against 100% survival at the lowest inhibitor concentration. Error bars show the percent coefficient of variation. Equivalent concentrations of DMSO were used as a negative control. e The cytotoxicity of JA2131 along with PDD, Veliparib and Doxorubicin against MRC-5 cells. Error bars show the percent coefficient of variation. f CETSA for in-cell JA2131 target engagement. Normalized anti-PARG western blot intensities of three independent experiments were fitted as above and the estimated aggregation temperature (Tagg) is shown in the tabulated insert. Source Data are provided as a Source Data file.
Using shRNA, next, we generated a stable MDA-MB-231 PARG knockdown (PARG-KD) cell-line (Supplementary Fig. 10). We compared PARGi JA2131-induced PARylation in PARG-KD and control cells. We reasoned that PARG-KD cells would show a reduced response to a selective PARGi as the stable PARG-KD cells would have to adopt a PARG-independent survival mechanism. MDA-MB-231 control cells and PARG-KD cells were treated with JA2131, then total cell lysates were subjected to immunoblotting with anti-PAR antibody, followed by immunodetection for anti-PARG, PARP1 and Actin antibody (Fig. 6c). […] Dose-response curves comparing control and PARG-KD cells further validate the selective action of JA2131 on control cells expressing PARG, but not on the PARG-KD cells (Supplementary Fig. 12).
PC3, MDA-MB-231 cells were maintained in RPMI 1640, MCF-7 cells in Eagle’s Minimum Essential Medium (EMEM), MRC-5 cells in Eagle’s Minimum Essential Medium and Hela and U2OS cells in Dulbecco’s modified Eagle’s high glucose medium (DMEM) supplemented with 10% (vol/vol) fetal bovine serum (FBS) and 1% antibiotic/antimycotic (Lonza) in a humidified incubator with 10% CO2. All cell lines were purchased from ATCC and regularly checked for mycoplasma and cell authentication. SUM 149PT cells were cultured in F-12 Hams (Gibco) supplemented with 5% fetal bovine serum, insulin, and hydrocortisone. […] Cells were fixed with methanol (100%), stained with crystal violet and analyzed using a GelCount instrument (Oxford Optronix Ltd). […]

MDA-MB-231 cells = experiment: Clonogenic survival assay; format: cell-based, human; details: 10 µM JA2131 2 h; 3 Gy IR; ~2 weeks
PARG in PC3 cells = molecular target: T1, PARG in PC3 cells (Homo sapiens, UniProt Q86W56); experiment: Cellular thermal shift assay (CETSA); format: cell-based; details: 10 μM JA2131
T1 construct: endogenous in cells; host or cells: PC3
T1 sequence (Q86W56 whole entry): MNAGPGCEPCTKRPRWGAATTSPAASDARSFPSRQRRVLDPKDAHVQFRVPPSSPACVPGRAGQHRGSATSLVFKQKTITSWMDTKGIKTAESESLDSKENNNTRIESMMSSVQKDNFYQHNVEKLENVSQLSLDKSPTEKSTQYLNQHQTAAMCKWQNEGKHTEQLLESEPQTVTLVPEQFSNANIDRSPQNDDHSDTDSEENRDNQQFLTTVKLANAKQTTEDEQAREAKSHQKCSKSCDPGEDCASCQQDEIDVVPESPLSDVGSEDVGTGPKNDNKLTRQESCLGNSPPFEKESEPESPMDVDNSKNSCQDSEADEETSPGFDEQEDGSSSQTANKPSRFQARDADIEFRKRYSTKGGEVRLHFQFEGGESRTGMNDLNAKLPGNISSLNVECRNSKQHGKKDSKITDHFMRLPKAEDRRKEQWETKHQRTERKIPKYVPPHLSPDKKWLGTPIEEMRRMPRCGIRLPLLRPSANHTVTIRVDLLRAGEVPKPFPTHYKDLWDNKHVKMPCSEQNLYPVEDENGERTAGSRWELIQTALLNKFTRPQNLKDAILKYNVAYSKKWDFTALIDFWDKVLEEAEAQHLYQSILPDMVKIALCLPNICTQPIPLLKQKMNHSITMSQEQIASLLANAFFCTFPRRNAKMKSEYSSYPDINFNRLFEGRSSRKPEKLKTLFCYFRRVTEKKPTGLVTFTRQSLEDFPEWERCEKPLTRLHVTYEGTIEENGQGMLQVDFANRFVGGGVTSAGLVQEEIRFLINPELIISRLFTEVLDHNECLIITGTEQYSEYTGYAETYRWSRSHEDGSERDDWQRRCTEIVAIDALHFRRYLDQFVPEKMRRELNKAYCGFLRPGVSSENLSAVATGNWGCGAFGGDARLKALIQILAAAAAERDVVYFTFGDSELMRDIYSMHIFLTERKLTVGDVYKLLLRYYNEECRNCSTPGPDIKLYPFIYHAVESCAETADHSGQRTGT
Description: CETSA was performed as described by Molina et al.[44]. Briefly, PC3 cells were treated with 10 μM JA2131 or an equivalent volume of DMSO for 2 h, washed three times with PBS and extracted for total cell lysate. Ten percent glycerol was added to the samples before subjecting to heat. […] Then, samples were centrifuged at 14,000 rpm for 20 min at 4 °C. Supernatants were carefully removed and analyzed by western blotting analysis.
Supplementary Fig. 14: Representative CETSA western blots for PARG and PCNA. PC3 cells
treated with 10 µM JA2131 or DMSO were temperature shocked as described in Materials and […]
PCNA antibody. Anti -Histone H3 was used as loading control.
(1 picture or pasted object on this page, not shown here)

A172 glioblastoma cells = experiment: Sulforhodamine B (SRB) cytotoxicity assay; details: Homo sapiens, A 172, 72 h
Description: (§1) Normalized % viabilities are plotted against log concentration. Error bars show the percent coefficient of variation. […] Mann-Whitney test was used to generate the p-value. The DNA spread assay is the representation of two independently repeated experiments. Source Data are provided as a Source Data file.
(§2) Cells were plated in 96-well plates, treated as designated in reduced 5% FBS and fixed with trichloroacetic acid after 72 h, as previously described by[43]. […] Colorimetric or fluorescence analysis was performed in a FlexStation 3, using SoftMax Pro 7.0, Molecular Devices. Normalized graphs were generated with Prism 8 software, non-linear 4-parameter data fitting was performed for IC50 calculation.

[2] = Sulforhodamine B (SRB) cytotoxicity assay; details: human, A172 glioblastoma cells
Description: as §1, §2

With Cn1c(=S)c2[nH]c(SCCN3CCOCC3)nc2n(C)c1=O [JA2131] the “anti-PAR western blot band, Normalized” value ([1]; 5 μM JA2131 2 h, Ci-DMSO = 1) was 8.898, the “anti-PAR western blot band, Intensity inversion” value ([1]; 5 μM JA2131 2 h, ImageJ) was 0.00723 and the “anti-PAR western blot band, Neg. substracted” value ([1]; 5 μM JA2131 2 h, ImageJ) was 0.001922. The “anti-PAR western blot band, mean int.” value ([1]; 5 μM JA2131 2 h, ImageJ) was 138.32, the “PAR accumulation after treatment” value ([1]; 5 μM, 2 h) was “did not affect the level of PAR accumulation” and the “clonogenic survival (Exp-1 to Exp-4)” value (MDA-MB-231 cells) was 45.2569 and 36.8075 and 26.8698 and 36.3114. The “stabilization of PARG proteins in cells” value (PARG in PC3 cells) was 9 °C, the “Band intensities, anti-PARG” value (PARG in PC3 cells; Temperature 4 °C) was 100 and the “Band intensities, anti-PARG” value (PARG in PC3 cells; Temperature 51 °C) was 93.0607. For the same molecule, the “Band intensities, anti-PARG” value (PARG in PC3 cells; Temperature 62 °C) was 68.3696, the “Band intensities, anti-PARG” value (PARG in PC3 cells; Temperature 68 °C) was 57.8125 and the “Band intensities, anti-PARG” value (PARG in PC3 cells; Temperature 72 °C) was 44.7308. For the same molecule, the “Band intensities, anti-PARG” value (PARG in PC3 cells; Temperature 77 °C) was 28.3012, the “Band intensities, anti-PARG” value (PARG in PC3 cells; Temperature 85 °C) was 16.0619 and the IC50 (A172 glioblastoma cells) was 55.3 ± 7.9 µM. For the same molecule, the viability at 72 h, 0.244 µM [2] was 100%, the viability at 72 h, 0.488 µM [2] was 98.3% and the viability at 72 h, 0.977 µM [2] was 99.4%. For the same molecule, the viability at 72 h, 1.95 µM [2] was 101%, the viability at 72 h, 3.91 µM [2] was 104% and the viability at 72 h, 7.82 µM [2] was 96.7%. The viability at 72 h, 15.6 µM [2] was 95.9%, the viability at 72 h, 31.3 µM [2] was 78.7% and the viability at 72 h, 62.5 µM [2] was 53.3%. It also gave a viability at 72 h, 125 µM [2] of 16.6%, a viability at 72 h, 250 µM [2] of 14.4% and a viability at 72 h, 500 µM [2] of 13.5%.
